pIC50: −log10 of the molar value.
Target: T1, human NaV 1.8 (Homo sapiens, UniProt Q9Y5Y9)
T1 construct: expressed in transfected cells; host or cells: HEK (recombinant cell line)
Test: Automated whole-cell patch clamp (Qube384) voltage-clamp recordings of sodium currents in HEK-NaV1.8 cell line
Format: cell-based
Details: read-out: Potency category (human NaV 1.8 IC50)
How it was run: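 HEK cells expressing NaV1.8 with b3, whole-cell automated voltage clamp at room temperature or 19° C.; CsF-based internal, pH 7.4 external. State-dependent (−120 mV, V1/2 4 s, −10 mV test pulses) and 10/20 Hz 40-pulse protocols; ~12 min compound, vehicle-corrected, IC50 by 4-parameter logistic fit.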

T1 sequence (Q9Y5Y9 whole entry): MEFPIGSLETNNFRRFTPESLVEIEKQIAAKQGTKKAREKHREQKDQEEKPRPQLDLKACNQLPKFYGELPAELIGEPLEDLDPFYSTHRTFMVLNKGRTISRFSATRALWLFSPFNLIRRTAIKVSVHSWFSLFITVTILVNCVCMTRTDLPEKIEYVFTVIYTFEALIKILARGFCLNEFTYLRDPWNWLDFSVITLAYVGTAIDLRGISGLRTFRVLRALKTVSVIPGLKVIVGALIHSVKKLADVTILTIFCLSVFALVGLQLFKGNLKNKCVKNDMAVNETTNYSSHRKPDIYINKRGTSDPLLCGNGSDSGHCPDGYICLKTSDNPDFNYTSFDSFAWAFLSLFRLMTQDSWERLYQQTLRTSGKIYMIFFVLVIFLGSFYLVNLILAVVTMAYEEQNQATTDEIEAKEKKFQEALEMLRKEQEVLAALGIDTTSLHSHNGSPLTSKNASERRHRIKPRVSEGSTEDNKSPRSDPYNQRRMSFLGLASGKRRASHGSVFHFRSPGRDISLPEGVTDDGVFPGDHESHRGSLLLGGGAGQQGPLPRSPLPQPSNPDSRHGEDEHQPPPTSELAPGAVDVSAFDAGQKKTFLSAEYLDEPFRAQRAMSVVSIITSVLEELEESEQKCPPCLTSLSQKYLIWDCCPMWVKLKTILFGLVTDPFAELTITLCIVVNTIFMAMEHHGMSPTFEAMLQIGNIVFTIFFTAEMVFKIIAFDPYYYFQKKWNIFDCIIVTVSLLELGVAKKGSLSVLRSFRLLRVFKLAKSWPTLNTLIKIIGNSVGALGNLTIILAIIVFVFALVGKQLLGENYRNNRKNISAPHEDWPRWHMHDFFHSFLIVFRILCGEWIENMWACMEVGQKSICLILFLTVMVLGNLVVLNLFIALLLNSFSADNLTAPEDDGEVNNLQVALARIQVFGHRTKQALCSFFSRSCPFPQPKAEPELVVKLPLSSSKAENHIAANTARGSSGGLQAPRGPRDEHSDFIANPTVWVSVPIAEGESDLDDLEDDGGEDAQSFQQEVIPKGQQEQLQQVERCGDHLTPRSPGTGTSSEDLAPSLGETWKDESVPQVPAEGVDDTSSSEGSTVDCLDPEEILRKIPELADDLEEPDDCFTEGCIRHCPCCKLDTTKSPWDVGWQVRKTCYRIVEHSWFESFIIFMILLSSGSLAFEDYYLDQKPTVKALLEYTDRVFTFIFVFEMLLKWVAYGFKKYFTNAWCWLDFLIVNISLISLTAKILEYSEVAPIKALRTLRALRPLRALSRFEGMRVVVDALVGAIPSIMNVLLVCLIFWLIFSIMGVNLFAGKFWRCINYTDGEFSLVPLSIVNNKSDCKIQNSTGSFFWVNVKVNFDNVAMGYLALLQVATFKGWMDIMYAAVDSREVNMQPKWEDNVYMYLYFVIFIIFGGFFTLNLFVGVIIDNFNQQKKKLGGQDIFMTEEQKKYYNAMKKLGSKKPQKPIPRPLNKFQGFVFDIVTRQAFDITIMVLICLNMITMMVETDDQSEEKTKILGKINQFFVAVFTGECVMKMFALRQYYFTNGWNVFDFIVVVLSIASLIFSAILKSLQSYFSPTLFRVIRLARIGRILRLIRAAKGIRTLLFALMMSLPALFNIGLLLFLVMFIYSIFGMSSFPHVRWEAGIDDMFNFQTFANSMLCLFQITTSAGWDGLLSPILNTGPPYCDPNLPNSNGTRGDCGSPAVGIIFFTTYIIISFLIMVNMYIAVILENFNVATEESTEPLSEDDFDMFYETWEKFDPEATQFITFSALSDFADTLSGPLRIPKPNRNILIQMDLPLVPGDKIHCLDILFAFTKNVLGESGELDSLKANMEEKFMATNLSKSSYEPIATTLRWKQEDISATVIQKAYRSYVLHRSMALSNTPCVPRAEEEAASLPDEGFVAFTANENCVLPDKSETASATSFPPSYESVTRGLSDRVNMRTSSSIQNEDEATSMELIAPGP

| SMILES | pIC50 |
| --- | --- |
| CC1(Cn2nc(C3CC3F)c(C(F)(F)F)c2C(=O)Nc2ccnc(S(C)(=N)=O)c2)CC(F)(F)C1 (single isomer, unassigned) [Example 62b, 1-((3,3-Difluoro-1-methylcyclobutyl)methyl)-3-(2-fluorocyclopropyl)-N-(2-(S-methylsulfonimidoyl)pyridin-4-yl)-4-(trifluoromethyl)-1H-pyrazole-5-carboxamide] | ≥ 7.00 |
| CS(=N)(=O)c1cc(NC(=O)c2c(C(F)(F)F)c(C3CC3)nn2CC2(C(F)(F)F)CCCC2)ccn1 (single isomer, unassigned) [Example 98b, 3-cyclopropyl-N-(2-(S-methylsulfonimidoyl)pyridin-4-yl)-4-(trifluoromethyl)-1-((1-(trifluoromethyl)cyclopentyl)methyl)-1H-pyrazole-5-carboxamide] | ≥ 7.00 |
| CC1(Cn2nc(C34CC(C3)C4(F)F)c(C(F)(F)F)c2C(=O)Nc2ccnc(S(C)(=N)=O)c2)CC(F)(F)C1 (single isomer, unassigned) [Example 114, 1-((3,3-Difluoro-1-methylcyclobutyl)methyl)-3-(2,2-difluorobicyclo[1.1.1]pentan-1-yl)-N-(2-(S-methylsulfonimidoyl)pyridin-4-yl)-4-(trifluoromethyl)-1H-pyrazole-5-carboxamide] | ≥ 7.00 |
| CC1(Cn2nc(C3CC3)c(C(F)(F)F)c2C(=O)Nc2ccnc(S(C)(=N)=O)c2)CCC(F)(F)C1 (single isomer, unassigned) [Example 29b, 3-Cyclopropyl-1-((3,3-difluoro-1-methylcyclopentyl)methyl)-N-(2-(S-methylsulfonimidoyl)pyridin-4-yl)-4-(trifluoromethyl)-1H-pyrazole-5-carboxamide] | ≥ 7.00 |
| CS(=N)(=O)c1cc(NC(=O)c2c(C(F)(F)F)c(C3CC3)nn2CC2C(F)(F)C23CCC3)ccn1 (single isomer, unassigned) [Example 136c, 3-Cyclopropyl-1-((2,2-difluorospiro[2.3]hexan-1-yl)methyl)-N-(2-(S-methylsulfonimidoyl)pyridin-4-yl)-4-(trifluoromethyl)-1H-pyrazole-5-carboxamide] | ≥ 7.00 |
| CC1(Cn2nc(C3CC3(F)F)c(C(F)(F)F)c2C(=O)Nc2ccnc(S(C)(=N)=O)c2)CC(F)(F)C1 (single isomer, unassigned) [Example 63b, 1-((3,3-Difluoro-1-methylcyclobutyl)methyl)-3-(2,2-difluorocyclopropyl)-N-(2-(S-methylsulfonimidoyl)pyridin-4-yl)-4-(trifluoromethyl)-1H-pyrazole-5-carboxamide] | ≥ 7.00 |
| CS(=N)(=O)c1cc(NC(=O)c2c(C(F)(F)F)c(C3CC3)nn2C[C@@H]2CCC(F)(F)C2)ccn1 (single isomer, unassigned) [Example 17c] | ≥ 7.00 |
| C[S@@](=N)(=O)c1cc(NC(=O)c2c(C(F)(F)F)c(C3CC3)nn2C[C@@H]2CC23CC3)ccn1 (single isomer, unassigned) [Example 78a, 3-cyclopropyl-N-(2-(S-methylsulfonimidoyl)pyridin-4-yl)-1-(spiro[2.2]pentan-1-ylmethyl)-4-(trifluoromethyl)-1H-pyrazole-5-carboxamide] | ≥ 7.00 |
| CCS(=N)(=O)c1cc(NC(=O)c2c(C(F)(F)F)c(C3CC3)nn2CC2(C)CC(F)(F)C2)ccn1 (single isomer, unassigned) [Example 48a, 3-cyclopropyl-1-((3,3-difluoro-1-methylcyclobutyl)methyl)-N-(2-(ethylsulfonimidoyl)pyridin-4-yl)-4-(trifluoromethyl)-1H-pyrazole-5-carboxamide] | ≥ 7.00 |
| Cc1c(C(C)(F)F)nn(CC2(C)CCC(F)(F)CC2)c1C(=O)Nc1ccnc(S(C)(=N)=O)c1 (single isomer, unassigned) [Example 11b, 1-((4,4-difluoro-1-methylcyclohexyl)methyl)-3-(1,1-difluoroethyl)-4-methyl-N-(2-(S-methylsulfonimidoyl)pyridin-4-yl)-1H-pyrazole-5-carboxamide] | ≥ 7.00 |

— US12685726B2, “Sulfoximines as inhibitors of NaV1.8” (Gruenenthal GmbH, priority 2022, dated 2026)
